ChEMBL document CHEMBL1141922, “Benzimidazoles as non-peptide luteinizing hormone-releasing hormone (LHRH) antagonists. Part 3: Discovery of 1-(1H-benzimidazol-5-yl)-3-tert-butylurea derivatives” (Bioorg Med Chem Lett, 2005)

Experiments:
[1] = target: T1, Gonadotropin-releasing hormone receptor (Rattus norvegicus, UniProt P30969); experiment: Inhibitory concentration against rat leutinizing releasing hormone receptor
T1 sequence (P30969 whole entry): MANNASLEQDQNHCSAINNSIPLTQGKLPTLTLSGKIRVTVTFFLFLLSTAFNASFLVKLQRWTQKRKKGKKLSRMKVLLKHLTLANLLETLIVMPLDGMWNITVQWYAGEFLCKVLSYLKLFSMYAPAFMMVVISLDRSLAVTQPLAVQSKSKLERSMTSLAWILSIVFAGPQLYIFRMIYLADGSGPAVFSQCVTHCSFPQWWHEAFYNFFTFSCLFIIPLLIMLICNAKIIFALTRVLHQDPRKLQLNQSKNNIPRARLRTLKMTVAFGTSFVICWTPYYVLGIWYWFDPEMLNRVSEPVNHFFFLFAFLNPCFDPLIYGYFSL

[2] = target: T2, Gonadotropin-releasing hormone receptor (Homo sapiens, UniProt P30968); experiment: Inhibitory concentration against human leutinizing releasing hormone receptor
T2 sequence (P30968 whole entry): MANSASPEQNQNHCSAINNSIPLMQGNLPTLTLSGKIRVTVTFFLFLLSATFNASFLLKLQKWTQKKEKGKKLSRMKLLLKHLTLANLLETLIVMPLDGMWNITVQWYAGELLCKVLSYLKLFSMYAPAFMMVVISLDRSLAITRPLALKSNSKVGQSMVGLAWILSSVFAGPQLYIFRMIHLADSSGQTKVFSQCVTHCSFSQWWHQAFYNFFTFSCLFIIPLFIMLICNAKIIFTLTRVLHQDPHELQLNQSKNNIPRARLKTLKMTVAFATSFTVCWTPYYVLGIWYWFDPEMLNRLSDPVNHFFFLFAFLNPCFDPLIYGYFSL

SMILES	IC50 [1] [nM]	IC50 [2] [nM]
CCCn1c(SCc2cc([N+](=O)[O-])ccc2OC)nc2cc(NC(=O)NC(C)(C)C)cc(C(=O)NCc3cccnc3)c21	54	69
CCCn1c(SCc2cc([N+](=O)[O-])ccc2OC)nc2cc(NC(=O)NC(C)(C)C)cc(C(=O)NCCc3cccnc3)c21	110	160
CCCCCn1c(SCc2cc([N+](=O)[O-])ccc2OC)nc2cc(NC(=O)NC(C)(C)C)ccc21	880	210
CCCn1c(SCc2cc([N+](=O)[O-])ccc2OC)nc2cc(NC(=O)NC(C)(C)C)cc(C(=O)NCc3ccccc3)c21	130	120
COc1ccc([N+](=O)[O-])cc1CSc1nc2cc(NC(=O)C3CCC3)ccc2n1C(C)C	630	1500
COc1ccc([N+](=O)[O-])cc1CSc1nc2cc(NC(=O)CC(C)(C)C)ccc2n1C(C)C	110	180
COc1ccccc1CSc1nc2cc(NC(=O)C3CC3)ccc2n1C(C)C	> 10000	2100
CCCn1c(SCc2cc([N+](=O)[O-])ccc2OC)nc2cc(NC(=O)NC(C)(C)C)cc(C(=O)OC)c21	280	37
CCCn1c(SCc2cc([N+](=O)[O-])ccc2OC)nc2cc(NC(=O)NC(C)(C)C)ccc21	120	18
COc1ccc(C#N)cc1CSc1nc2cc(NC(=O)C3CC3)ccc2n1C(C)C	> 10000	570
COc1ccc([N+](=O)[O-])cc1CSc1nc2cc(NC(=O)C3CC3)ccc2n1C(C)C	> 8200	280
CC(C)n1c(SCc2ccccc2Cl)nc2cc(NC(=O)C3CC3)ccc21	> 10000	6300
CNC(=O)Nc1ccc2c(c1)nc(SCc1cc([N+](=O)[O-])ccc1OC)n2C(C)C	> 10000	3300
CCn1c(SCc2cc([N+](=O)[O-])ccc2OC)nc2cc(NC(=O)NC(C)(C)C)ccc21	170	42
COc1ccc([N+](=O)[O-])cc1CSc1nc2cc(NC(=O)NC(C)C)ccc2n1C(C)C	280	600
CCCn1c(SCc2cc([N+](=O)[O-])ccc2OC)nc2cc(NC(=O)NC(C)(C)C)cc(C(=O)NCCN)c21	55	210
COc1ccc(C(C)=O)cc1CSc1nc2cc(NC(=O)C3CC3)ccc2n1C(C)C	> 10000	260
COc1ccc([N+](=O)[O-])cc1CSc1nc2cc(NC(=O)NC(C)(C)C)ccc2n1-c1ccccc1	> 2600	350
CCCn1c(SCc2cc([N+](=O)[O-])ccc2OC)nc2cc(NC(=O)NC(C)(C)C)cc(C(=O)NCCCN(C)C)c21	19	170
COc1ccc(Cl)cc1CSc1nc2cc(NC(=O)C3CC3)ccc2n1C(C)C	> 10000	160
COc1ccc([N+](=O)[O-])cc1CSc1nc2cc(NC(=O)C(C)C)ccc2n1C(C)C	1500	250
CCCn1c(SCc2cc([N+](=O)[O-])ccc2OC)nc2cc(NC(=O)NC(C)(C)C)cc(C(=O)O)c21	510	21
COc1ccc([N+](=O)[O-])cc1CSc1nc2cc(NC(=O)OC(C)(C)C)ccc2n1C(C)C	710	880
Cc1ccccc1CSc1nc2cc(NC(=O)C3CC3)ccc2n1C(C)C	> 10000	3200
COc1ccc([N+](=O)[O-])cc1CSc1nc2cc(NC(=O)NC(C)(C)C)ccc2n1CCc1ccccc1	300	360
CCCn1c(SCc2cc([N+](=O)[O-])ccc2OC)nc2cc(NC(=O)NC(C)(C)C)cc(C(=O)NCCc3ccncc3)c21	45	130
COCCn1c(SCc2cc([N+](=O)[O-])ccc2OC)nc2cc(NC(=O)NC(C)(C)C)ccc21	280	57
COc1ccc([N+](=O)[O-])cc1CSc1nc2cc(NC(=O)NC(C)(C)C)ccc2n1Cc1ccncc1	240	47
CCCn1c(SCc2cc([N+](=O)[O-])ccc2OC)nc2cc(NC(=O)NC(C)(C)C)cc(C(=O)NC)c21	23	41

Further lines, results first:

IC50 [1] [nM]	IC50 [2] [nM]	SMILES
35	61	CCCn1c(SCc2cc([N+](=O)[O-])ccc2OC)nc2cc(NC(=O)NC(C)(C)C)cc(C(=O)NCc3ccncc3)c21
> 10000	980	COC(=O)c1ccc(OC)c(CSc2nc3cc(NC(=O)C4CC4)ccc3n2C(C)C)c1
330	23	CCCCn1c(SCc2cc([N+](=O)[O-])ccc2OC)nc2cc(NC(=O)NC(C)(C)C)ccc21
21	190	CCCn1c(SCc2cc([N+](=O)[O-])ccc2OC)nc2cc(NC(=O)NC(C)(C)C)cc(C(=O)NCCCN(C)Cc3ccccc3)c21
> 10000	180	COc1ccc([N+](=O)[O-])cc1CSc1nc2cc(NC(=O)C(C)(C)C)ccc2n1C(C)C
> 10000	6500	Cc1cccc(CSc2nc3cc(NC(=O)C4CC4)ccc3n2C(C)C)c1
490	410	CCCn1c(SCc2cc([N+](=O)[O-])ccc2OC)nc2cc(NC(=O)NC(C)(C)C)cc(C(=O)NC(C)(C)C)c21
1600	1900	COc1ccc([N+](=O)[O-])cc1CSc1nc2cc(NC(=O)NC3CC3)ccc2n1C(C)C
860	79	COc1ccc([N+](=O)[O-])cc1CSc1nc2cc(NC(=O)NC(C)(C)C)ccc2n1C1CC1
140	610	CCCn1c(SCc2cc([N+](=O)[O-])ccc2OC)nc2cc(NC(=O)NC(C)(C)C)cc(C(=O)N3CCCC3)c21
62	62	COc1ccc([N+](=O)[O-])cc1CSc1nc2cc(NC(=O)NC(C)(C)C)ccc2n1C(C)C
56	27	CCCn1c(SCc2cc([N+](=O)[O-])ccc2OC)nc2cc(NC(=O)NC(C)(C)C)cc(C(=O)NCCc3ccccn3)c21
150	33	COc1ccc([N+](=O)[O-])cc1CSc1nc2cc(NC(=O)NC(C)(C)C)ccc2n1Cc1cccnc1
200	270	CCCn1c(SCc2cc([N+](=O)[O-])ccc2OC)nc2cc(NC(=O)NC(C)(C)C)cc(C(=O)N(C)C)c21
160	28	COc1ccc([N+](=O)[O-])cc1CSc1nc2cc(NC(=O)NC(C)(C)C)ccc2n1Cc1ccccc1
51	31	CCCn1c(SCc2cc([N+](=O)[O-])ccc2OC)nc2cc(NC(=O)NC(C)(C)C)cc(C(=O)NCc3ccccn3)c21
670	43	COc1ccc([N+](=O)[O-])cc1CSc1nc2cc(NC(=O)NC(C)(C)C)ccc2n1Cc1ccccn1
